Reference: patent US6828294B2, “High retention sanitizer systems” (FMC Corporation, priority 2001, dated 2004)

Key:
[1] = Stability of PAA in compositions and in presence of chelators (PAA test strips); settings: for PAA present immediately after preparation of the solution / time after which no PAA was detectable: chelator plus 0.170 g of 5% PAA in 100 g DI water, PAA test strips
Description: A sanitizer composition containing 0.25% SLS, 0.05% LA, 0.125% magnesium sulfate, and 85 ppm PAA was prepared in the 300 ppm total hardness water described in Example 8. This solution was applied to a stainless steel cabinet (34.5 in.×72 in.) in the meat pilot plant with a FOAM-IT® 5 unit using the driest foam setting.
This Example illustrates the effect of chelating agent on sanitizer compositions. The amount of chelator added is intended to chelate a concentration of ions corresponding to 300 ppm hard water, which corresponds to 3 millimolar. Because water will often have a hardness of less than 300 ppm, leaving an excess of chelator, it is important to evaluate the stability of PAA with respect to the chelator. The excess chelator could cause increases in pH, which would decrease the amount of PAA present according to the reaction (Preparation, Properties, Reactions and Uses of Organic Peracids and their Salts, FMC Corporation, Inorganic Chemicals Division, New York, N.Y., 1964, p. 34):
Therefore, in anticipation of the worst case where soft water is used to prepare the solution from which the foam is generated, the stability of PAA in the presence of at least 3 millimolar of chelator was evaluated.
0.125 g of Na4EDTA and 0.170 g of 5% PAA were added to 100 g of DI water.
0.161 g of Na3EDTA and 0.170 g of 5% PAA were added to 100 g of DI water.
0.233 g of Na2EDTA and 0.170 g of 5% PAA were added to 100 g of DI water.

[2] = pH of solutions; format: physicochemical; settings: chelator solutions in DI water in the absence of PAA, pH test paper
[3] = Turbidity of lauryl sulfate solutions in hard water (Example 8); format: physicochemical
Description: When a 0.25% MLS solution was prepared in water containing 333 ppm of calcium chloride, the solution became turbid after about 2 min.
Hard water contains both magnesium and calcium ions. For a 300 ppm total hardness (expressed as calcium carbonate), there is about 200 ppm hardness as calcium and 100 ppm hardness as magnesium (AOAC Official Methods of Analysis, 1995, Chapter 6, p. 10). […] When 0.25% solution of MLS was prepared in 300 ppm total hardness water containing calcium and magnesium ions in this ratio, the solution became turbid after about 5 minutes.

[4] = 0.25% solution in 300 ppm total hardness water containing calcium and magnesium ions
[5] = 0.25% solution in water containing 333 ppm of calcium chloride

In the case of “sodium salts of diethylene triamine pentaacetic acid”, the “stability of PAA in the presence of the chelator” value (from here on “stability of PAA”) [1] is reported as “rapidly decomposes”.
With O=C([O-])CN(CCN(CC(=O)[O-])CC(=O)O)CC(=O)O.[Na+].[Na+] [Na2EDTA] the “PAA present immediately after preparation of the solution” value (“PAA present immediately” below) [1] was “at least 50 ppm”, the “time after which no PAA was detectable” value [1] was roughly 10 min and the pH [2] was 4.
For O=C([O-])CN(CCN(CC(=O)[O-])CC(=O)[O-])CC(=O)[O-].[Na+].[Na+].[Na+].[Na+] [Na4EDTA], the “PAA present immediately” value [1] was “no PAA present” and the pH [2] was 10.
In the case of CCCCCCCCCCCCOS(=O)(=O)[O-].[Na+] [SLS, Sodium lauryl sulfate], the “time until solution became turbid” value [3, 4] is reported as “immediately became turbid” and the “time until solution became turbid” value [3, 5] is reported as “instantly became turbid”.
For Magnesium lauryl sulfate [MLS], the “time until solution became turbid” value [3, 4] was “about 5 minutes” and the “time until solution became turbid” value [3, 5] was “about 2 min”.
With O=C([O-])CN(CCN(CC(=O)[O-])CC(=O)O)CC(=O)[O-].[Na+].[Na+].[Na+] [Na3EDTA] the “PAA present immediately” value [1] was “at least 50 ppm”, the “time after which no PAA was detectable” value [1] was roughly 5 min and the pH [2] was 7.5.
In the case of O=P([O-])(O)CN(CCN(CCN(CP(=O)(O)O)CP(=O)(O)O)CP(=O)(O)O)CP(=O)(O)O.[Na+] [DEQUEST 2066], the “stability of PAA” value [1] is reported as “not found any chelator in salt form in which PAA is stable”.
For O=C([O-])CN(CCN(CC(=O)[O-])CC(=O)[O-])CCN(CC(=O)[O-])CC(=O)[O-].[Na+].[Na+].[Na+].[Na+].[Na+] [pentasodium salt of diethylenetriaminepentaacetic acid], the “stability of PAA” value [1] was “not found any chelator in salt form in which PAA is stable”.
For CC(O)(P(=O)(O)O)P(=O)(O)O [DEQUEST® 2010, 1-hydroxyethylidene-1,1-diphosphonic acid], the “stability of PAA” value [1] was “stable”.
